Source: patent US20080292584A1 (priority 2005, published 2008)
Values joined by “and” are separate entries in the source; they are usually repeats but may differ in a detail not shown here. Equal values may be shown once. Read-outs that look alike come from different tables or passages of the source.

Columns and labels:
[1] = target: T1, CYP2D6 (Homo sapiens, UniProt P10635); experiment: Metabolism of metaxalone by expressed recombinant human CYP2D6 at 5 or 20 pmol (Example 4); conditions: for percent turnover / % Turnover Mean / [metaxalone] Mean / % Turnover % / [metaxalone]: 60 min; for % Turnover % / [metaxalone]: single replicates, listed as Metaxalone
T1 sequence (P10635 whole entry): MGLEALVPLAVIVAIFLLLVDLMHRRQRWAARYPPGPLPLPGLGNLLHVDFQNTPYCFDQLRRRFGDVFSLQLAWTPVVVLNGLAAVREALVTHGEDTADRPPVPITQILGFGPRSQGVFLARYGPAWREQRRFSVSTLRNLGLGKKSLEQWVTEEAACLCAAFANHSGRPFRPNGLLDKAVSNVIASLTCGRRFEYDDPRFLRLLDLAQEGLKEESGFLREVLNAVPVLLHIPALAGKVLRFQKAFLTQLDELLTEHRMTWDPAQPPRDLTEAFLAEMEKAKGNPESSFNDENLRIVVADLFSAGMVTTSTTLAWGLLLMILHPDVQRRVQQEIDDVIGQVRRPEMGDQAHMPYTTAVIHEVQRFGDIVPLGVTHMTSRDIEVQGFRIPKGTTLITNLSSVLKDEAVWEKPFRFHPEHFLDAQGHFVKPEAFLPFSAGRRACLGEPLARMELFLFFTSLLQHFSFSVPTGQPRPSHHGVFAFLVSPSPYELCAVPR
Description: For CYP2C9 and CYP2D6, SUPERSOMES singly-expressing different allelic variants of the cytochrome p450 isozyme were commercially available. For each of CYP2C9 and CYP2D6, only the *1 allele was tested in these experiments. […]

[2] = target: T2, human CYP1A2 (Homo sapiens, UniProt P05177); experiment: Metabolism of metaxalone by expressed recombinant human CYP1A2 at 5 or 20 pmol (Example 4, LC-MS/MS); conditions: for percent turnover / % Turnover Mean / [metaxalone] Mean / % Turnover % / [metaxalone]: 60 min; for % Turnover % / [metaxalone]: single replicates, listed as Metaxalone
T2 sequence (P05177 2-516 limits assumed): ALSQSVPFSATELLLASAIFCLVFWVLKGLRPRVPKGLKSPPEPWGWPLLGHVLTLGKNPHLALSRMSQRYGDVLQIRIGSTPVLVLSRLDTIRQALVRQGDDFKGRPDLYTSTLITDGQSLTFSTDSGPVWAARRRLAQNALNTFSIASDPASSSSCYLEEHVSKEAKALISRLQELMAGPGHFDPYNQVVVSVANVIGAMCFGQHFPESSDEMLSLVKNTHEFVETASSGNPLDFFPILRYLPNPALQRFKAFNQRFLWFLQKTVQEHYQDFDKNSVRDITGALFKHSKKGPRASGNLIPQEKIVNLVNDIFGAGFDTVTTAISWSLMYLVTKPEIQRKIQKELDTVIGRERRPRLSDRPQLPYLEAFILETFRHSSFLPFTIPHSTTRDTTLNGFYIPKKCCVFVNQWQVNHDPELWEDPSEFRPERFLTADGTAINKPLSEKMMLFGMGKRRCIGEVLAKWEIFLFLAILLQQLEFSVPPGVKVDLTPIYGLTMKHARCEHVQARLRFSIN

[3] = target: T3, CYP2B6 (Homo sapiens, UniProt P20813); experiment: Inhibition of CYP2B6 activity in pooled human liver microsomes (S-mephenytoin 1 mM to nirvanol); assay type: in vitro ADME
T3 sequence (P20813 1-491): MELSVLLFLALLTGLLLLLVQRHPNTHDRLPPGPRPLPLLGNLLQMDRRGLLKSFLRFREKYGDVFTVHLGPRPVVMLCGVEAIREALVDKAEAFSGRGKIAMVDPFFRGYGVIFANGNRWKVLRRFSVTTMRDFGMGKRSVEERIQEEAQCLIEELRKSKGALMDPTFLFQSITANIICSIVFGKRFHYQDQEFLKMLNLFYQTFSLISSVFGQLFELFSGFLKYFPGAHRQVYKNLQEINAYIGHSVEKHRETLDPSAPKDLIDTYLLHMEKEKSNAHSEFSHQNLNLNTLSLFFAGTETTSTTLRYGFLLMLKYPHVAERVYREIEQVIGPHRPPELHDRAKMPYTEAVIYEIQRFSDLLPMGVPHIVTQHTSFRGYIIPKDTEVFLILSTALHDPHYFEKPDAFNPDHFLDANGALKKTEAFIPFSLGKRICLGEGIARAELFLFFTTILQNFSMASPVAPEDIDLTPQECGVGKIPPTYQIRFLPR
Description: All other incubations were for 30 minutes.
Four replicates were performed.
Two replicates were performed.

[4] = target: T1, CYP2D6; experiment: Metabolism of metaxalone by expressed recombinant human CYP2D6 (Example 1); conditions: 30 min;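 note: reactions in 0.5 mL were started by adding an NADPH regenerating system after 5 min preincubation, with background signal estimated from controls containing only matrix components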
Description: Commercially available microsomes from baculovirus-infected insect cells containing singly-expressed recombinant wild-type (*1 allele) human CYP enzymes and cDNA-expressed human cytochrome p450 oxidoreductase [BD SUPERSOMES Enzymes; BD Biosciences Discovery Labware (Woburn, Mass.)] were used.
After a 5-minute pre-incubation, an NADPH regenerating system (NRS) was added to the incubation mixtures to initiate reactions, with a final incubation volume of 0.5 mL. Incubations were continued for 30 minutes, and then terminated, except for those for CYP2C19, which were incubated for 36 minutes prior to termination.
Matrix controls were performed to determine the background signal from the matrix components (microsomes (10 pmol p450), 01N Tris buffer, NRS, and 1% methanol). […] After a 5-minute pre-incubation, 2% sodium bicarbonate solution was added to the incubation mixtures. Incubation was for 30 minutes at a final volume of 0.5 mL. Matrix and metabolic negative controls were terminated by adding an equal volume of methanol. […] Analysis of samples was subsequent to storage at −70° C.

[5] = target: T1, CYP2D6; conditions: both, pH 7.4; for Mean Conc.: 60 min; for % Turnover Mean: microsomes, 1 h
Description: Human liver microsomes pooled from 15 individuals (male and female) (Pool HMMC-PL020; CellzDirect, Inc., In Vitro Products and Services Division) were used in some experiments of this study.
% Turnover=100−{[TA(final)]/[mean of TA(0 min)]}×100,
% Inhibition of Turnover=100{1−([TA(0 min)]−[TA(final-inhibitor)])/([TA(0 min)]−[TA(final-no inhibitor)])}.
The inhibitors or vehicle control were incubated with the pooled human liver microsomes (1 mg/mL) and NADPH (1 mM) in 0.1 M phosphate buffer, pH 7.4. […] Incubations were conducted in triplicate and terminated by addition of organic solvent. Samples were extracted and analyzed by LC-MS/MS as described above.

[6] = 0.75 μM metaxalone, 5 pmol CYP450
[7] = 0.75 μM metaxalone, 20 pmol CYP450
[8] = 0.75 μM metaxalone, 20 pmol cyp
[9] = 7.5 μM metaxalone, 5 pmol CYP450
[10] = 7.5 μM metaxalone, 20 pmol CYP450

Structure (SMILES): Cc1cc(C)cc(OCC2CNC(=O)O2)c1 (stereo not drawn) [metaxalone, 5-[(3,5-dimethylphenoxy)methyl]-2-oxazolidinone]
- percent turnover [1, 6]: 9.9%
- % Turnover Mean ([1]; 0.75 μM metaxalone, 5 pmol cyp): 9.9%
- [metaxalone] Mean ([1]; 0.75 μM metaxalone, 5 pmol cyp): 0.642 µM
- % Turnover % ([1]; 0.75 μM metaxalone, 5 pmol cyp): 8.8% and 11.6% and 9.1%
- [metaxalone] ([1]; 0.75 μM metaxalone, 5 pmol cyp): 0.649 µM and 0.629 µM and 0.647 µM
- percent turnover [1, 7]: 19.5%
- % Turnover Mean [1, 8]: 19.5%
- [metaxalone] Mean [1, 8]: 0.573 µM
- % Turnover % [1, 8]: 23.3% and 16.7% and 18.5%
- [metaxalone] [1, 8]: 0.546 µM and 0.593 µM and 0.581 µM
- percent turnover [1, 9]: 12.6%
- % Turnover Mean ([1]; 7.5 μM metaxalone, 5 pmol cyp): 12.6%
- [metaxalone] Mean ([1]; 7.5 μM metaxalone, 5 pmol cyp): 6.74 µM
- % Turnover % ([1]; 7.5 μM metaxalone, 5 pmol cyp): 10.7% and 12.5% and 14.5%
- [metaxalone] ([1]; 7.5 μM metaxalone, 5 pmol cyp): 6.89 µM and 6.75 µM and 6.60 µM
- percent turnover [1, 10]: 24.9%
- % Turnover Mean ([1]; 7.5 μM metaxalone, 20 pmol cyp): 24.9%
- [metaxalone] Mean ([1]; 7.5 μM metaxalone, 20 pmol cyp): 5.79 µM
- % Turnover % ([1]; 7.5 μM metaxalone, 20 pmol cyp): 23.9% and 23.5% and 27.3%
- [metaxalone] ([1]; 7.5 μM metaxalone, 20 pmol cyp): 5.87 µM and 5.90 µM and 5.61 µM
- Substrate ([1]; CYP isozyme 2D6, summary of studies): +
- percent turnover [2, 6]: 9.2%
- % Turnover Mean ([2]; 0.75 μM metaxalone, 5 pmol cyp): 9.2%
- [metaxalone] Mean ([2]; 0.75 μM metaxalone, 5 pmol cyp): 0.719 µM
- % Turnover % ([2]; 0.75 μM metaxalone, 5 pmol cyp): 17.5% and 6.2% and 3.9%
- [metaxalone] ([2]; 0.75 μM metaxalone, 5 pmol cyp): 0.653 µM and 0.742 µM and 0.761 µM
- percent turnover [2, 7]: 34.8%
- % Turnover Mean [2, 8]: 34.8%
- [metaxalone] Mean [2, 8]: 0.516 µM
- % Turnover % [2, 8]: 31.7% and 35.5% and 37.3%
- [metaxalone] [2, 8]: 0.540 µM and 0.511 µM and 0.496 µM
- percent turnover [2, 9]: 10.0%
- % Turnover Mean ([2]; 7.5 μM metaxalone, 5 pmol cyp): 10.0%
- [metaxalone] Mean ([2]; 7.5 μM metaxalone, 5 pmol cyp): 7.60 µM
- % Turnover % ([2]; 7.5 μM metaxalone, 5 pmol cyp): 14.3% and 5.7%
- [metaxalone] ([2]; 7.5 μM metaxalone, 5 pmol cyp): 7.24 µM and 7.97 µM
- percent turnover [2, 10]: 30.4%
- % Turnover Mean ([2]; 7.5 μM metaxalone, 20 pmol cyp): 30.4%
- [metaxalone] Mean ([2]; 7.5 μM metaxalone, 20 pmol cyp): 5.88 µM
- % Turnover % ([2]; 7.5 μM metaxalone, 20 pmol cyp): 33.3% and 32.3% and 25.5%
- [metaxalone] ([2]; 7.5 μM metaxalone, 20 pmol cyp): 5.63 µM and 5.72 µM and 6.29 µM
- Substrate ([2]; CYP isozyme 1A2, summary of studies): +
- inhibition of CYP activity at a statistically significant level ([3]; 0.3-100 μM metaxalone, p≦0.05): inhibited
- Inhibitor ([3]; CYP isozyme 2B6, summary of studies): +
- Percent of VC ([3]; metaxalone 0.3 μM): 90.2%
- Specific Activity Individual ([3]; metaxalone 0.3 μM): 27.9 pmol/min/mg protein and 25.6 pmol/min/mg protein and 27.5 pmol/min/mg protein
- Specific Activity Mean ± SD ([3]; metaxalone 0.3 μM): 27.0 ± 1.21 pmol/min/mg protein
- Percent of VC ([3]; metaxalone 1 μM): 99.5%
- Specific Activity Individual ([3]; metaxalone 1 μM): 27.3 pmol/min/mg protein and 29.5 pmol/min/mg protein and 32.6 pmol/min/mg protein
- Specific Activity Mean ± SD ([3]; metaxalone 1 μM): 29.8 ± 2.68 pmol/min/mg protein
- Percent of VC ([3]; metaxalone 3 μM): 90.6%
- Specific Activity Individual ([3]; metaxalone 3 μM): 26.3 pmol/min/mg protein and 26.9 pmol/min/mg protein and 28.2 pmol/min/mg protein
- Specific Activity Mean ± SD ([3]; metaxalone 3 μM): 27.1 ± 1.00 pmol/min/mg protein
- Percent of VC ([3]; metaxalone 30 μM): 96.6%
- Specific Activity Individual ([3]; metaxalone 30 μM): 28.9 pmol/min/mg protein and 28.7 pmol/min/mg protein and 29.2 pmol/min/mg protein
- Specific Activity Mean ± SD ([3]; metaxalone 30 μM): 28.9 ± 0.216 pmol/min/mg protein
- Percent of VC ([3]; metaxalone 100 μM): 83.7%
- Specific Activity Individual ([3]; metaxalone 100 μM): 24.9 pmol/min/mg protein and 24.6 pmol/min/mg protein and 25.7 pmol/min/mg protein
- Specific Activity Mean ± SD ([3]; metaxalone 100 μM): 25.1 ± 0.581 pmol/min/mg protein
- Metaxalone Present Adjusted Individual ([4]; metaxalone 0.5 μM): 0.374 µM and 0.297 µM and 0.286 µM
- Metaxalone Present Adjusted Mean ± SD ([4]; metaxalone 0.5 μM): 0.319 ± 0.0477 µM
- Metaxalone Present Raw ([4]; metaxalone 0.5 μM): 0.1868 µM and 0.1486 µM and 0.1431 µM
- Percent of Metabolic Negative Control Individual ([4]; metaxalone 0.5 μM): 128% and 102% and 98.0%
- Percent of Metabolic Negative Control Mean ± SD ([4]; metaxalone 0.5 μM): 109 ± 16.3%
- Metaxalone Present Adjusted Individual ([4]; metaxalone 2.5 μM): 1.52 µM and 1.54 µM and 1.53 µM
- Metaxalone Present Adjusted Mean ± SD ([4]; metaxalone 2.5 μM): 1.53 ± 0.0111 µM
- Metaxalone Present Raw ([4]; metaxalone 2.5 μM): 0.7583 µM and 0.7685 µM and 0.767 µM
- Percent of Metabolic Negative Control Individual ([4]; metaxalone 2.5 μM): 96.9% and 98.2% and 98.0%
- Percent of Metabolic Negative Control Mean ± SD ([4]; metaxalone 2.5 μM): 97.7 ± 0.707%
- Metaxalone Present Adjusted Individual ([4]; metaxalone 25 μM): 19.1 µM and 19.7 µM and 18.9 µM
- Metaxalone Present Adjusted Mean ± SD ([4]; metaxalone 25 μM): 19.2 ± 0.436 µM
- Metaxalone Present Raw ([4]; metaxalone 25 μM): 9.526 µM and 9.845 µM and 9.429 µM
- Percent of Metabolic Negative Control Individual ([4]; metaxalone 25 μM): 99.2% and 103% and 98.2%
- Percent of Metabolic Negative Control Mean ± SD ([4]; metaxalone 25 μM): 99.9 ± 2.27%
- Mean Conc. ([5]; 0.75 μM): 0.769 µM
- Mean Conc. ([5]; 7.5 μM): 7.66 µM
- % Turnover Mean ([5]; 0.75 μM): 0.376%
- % Turnover Mean ([5]; 7.5 μM): 10.0%
